The subject of assay [1] is KMS12 multiple myeloma cells. Nature of the assay: [3H]thymidine incorporation assay in KMS12. Type of assay: cell-based, human. In general terms: Dividing cells build labelled thymidine or BrdU into new DNA.
Description: In these latter assays, the effects of Z-DTPs, Ac-DTPs and Z-LTPs on the survival/proliferation of tumour cell lines was investigated by measuring DNA synthesis using standard tritiated thymidine ([^3H]thymidine; [^3H]-TdR) uptake assays. In the analyses shown, cells were incubated for 24, 72, 120 or 144 hrs at 37° C. in the presence or absence of control or bioactive tetrapeptides, as indicated, then subjected to an additional incubation for 18 hrs with [^3H]-TdR (0.037 MBq/well, equivalent to 0.5 μCi/well). Cells were subsequently harvested onto glass fibre filter mats using a 96-well plate automated cell harvester, after which scintillation fluid was added, and [^3H]thymidine incorporation measured by liquid scintillation spectroscopy on a beta counter. The results are expressed as the percentages of the counts per minute (c.p.m.) (directly correlating with the extent of cell proliferation) measured with tetrapeptide-treated cultures relative to the c.p.m. measured with the corresponding cultures incubated with medium alone (untreated cells). All experiments were performed in triplicate.
For assay [2], the system named is KMS11 multiple myeloma cells. The experiment in a line: [3H]thymidine incorporation assay in KMS11. Type of assay: cell-based, human. How it is done: Cultures of multiple myeloma cells and treatments with Z-DTPs were carried out as described in Example 8 (see below). The effects of Z-DTPs on the survival/proliferation of multiple myeloma cells were evaluated by the use of [^3H]thymidine) incorporation assays, performed as also described in Example 8. The amount of cell proliferation measured with each of the Z-DTPs' concentrations used and with the untreated cultures (i.e. cultures incubated with medium alone), was expressed as counts per minute (c.p.m.)—which directly correlate with the extent of cell proliferation. All experiments were performed in triplicate.
In these latter assays, the effects of Z-DTPs, Ac-DTPs and Z-LTPs on the survival/proliferation of tumour cell lines was investigated by measuring DNA synthesis using standard tritiated thymidine ([^3H]thymidine; [^3H]-TdR) uptake assays. In the analyses shown, cells were incubated for 24, 72, 120 or 144 hrs at 37° C. in the presence or absence of control or bioactive tetrapeptides, as indicated, then subjected to an additional incubation for 18 hrs with [^3H]-TdR (0.037 MBq/well, equivalent to […]). Cells were subsequently harvested onto glass fibre filter mats using a 96-well plate automated cell harvester, after which scintillation fluid was added, and [^3H]thymidine incorporation measured by liquid scintillation spectroscopy on a beta counter. The results are expressed as the percentages of the counts per minute (c.p.m.) (directly correlating with the extent of cell proliferation) measured with tetrapeptide-treated cultures relative to the c.p.m. measured with the corresponding cultures incubated with medium alone (untreated cells). All experiments were performed in triplicate.

The target in assay [3] is T1, Gadd45β/MKK7 interaction (Homo sapiens, UniProt O14733).
T1 construct: The GST-fused full-length kinase was coated for 16 h at 4° C., at a concentration of 42 nM; made in house
T1 sequence (O14733 1-419): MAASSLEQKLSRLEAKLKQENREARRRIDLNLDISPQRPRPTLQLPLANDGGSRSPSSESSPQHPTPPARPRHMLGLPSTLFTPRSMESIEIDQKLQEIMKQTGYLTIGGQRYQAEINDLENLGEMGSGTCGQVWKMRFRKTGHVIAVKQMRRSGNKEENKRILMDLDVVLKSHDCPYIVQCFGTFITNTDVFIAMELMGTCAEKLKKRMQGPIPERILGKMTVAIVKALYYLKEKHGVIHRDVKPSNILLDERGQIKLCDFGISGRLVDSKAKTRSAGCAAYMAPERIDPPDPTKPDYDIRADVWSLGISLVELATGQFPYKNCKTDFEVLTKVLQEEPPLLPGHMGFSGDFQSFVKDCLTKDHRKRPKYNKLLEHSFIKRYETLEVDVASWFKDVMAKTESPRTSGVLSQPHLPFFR
Nature of the assay: ELISA competition assay of biotin-hGadd45β binding to coated GST-MKK7. As to conditions: Table V, read-out: IC50 ELISA. How it is done:
To evaluate the inhibitory properties of peptides, ELISA-based assays were performed. In these assays, a fusion protein of glutathione S-transferase (GST) and mitogen-activated protein kinase kinase 7 (MKK7) was coated onto wells of a 96-well plate, while biotinylated-hGadd45β was used in solution. hGadd45β was biotinylated using an EZ Link NHS-LC-biotin kit (Pierce, Rockford, Ill.), according to Tornatore et al. (Tornatore L., et al. (2008). J Mol Biol; 378:97-111).
Firstly, the association between Gadd45β and MKK7 was investigated by ELISA assays as also reported in Tornatore et al. (Tornatore L., et al. (2008). J Mol Biol; 378:97-111). The GST-fused full-length kinase was coated for 16 h at 4° C., at a concentration of 42 nM in buffer A (25 mM Tris pH 7.5, 150 mM NaCl, 1 mM DTT and 1 mM EDTA) into wells of a 96-well microliter plate. Some wells were filled with buffer alone and were used as blanks. After incubation for 16 h at 4° C., the solutions were removed and the wells were filled with 350 μL of a 1% (w/v) solution of NFDM (Non Fat Dry Milk) in PBS (phosphate buffered saline). The plate was incubated for 1 h at 37° C. in the dark. After washing with buffer T-PBS (PBS with 0.004% (v/v) Tween detergent), the wells were filled with 100 μL of biotinylated-hGadd45β at concentrations ranging from 8.4 nM to 168 nM. Each data point was performed in triplicate. Following incubation for 1 hr in the dark at 37° C. the solutions were removed and the wells were again washed with T-PBS. Then 100 μL of a 1:10,000 dilution of horseradish peroxidase-conjugated streptavidin dissolved in buffer was added to each well and the plate incubated for 1 hr at 37° C. in the dark. After removal of the enzyme solution and washing, 100 μL of the chromogenic substrate o-phenylendiamine (0.4 mg/mL in 50 mM sodium phosphate-citrate buffer, containing 0.4 mg/mL of urea in hydrogen peroxide) was added and the colour was allowed to develop in the dark for 5 min. The reaction was stopped by adding 50 μL of 2.5 M H2SO4. The absorbance at 490 nm was measured in all wells and the values were averaged after subtracting the corresponding blanks. Bound protein was then detected as described above. The molar concentration of biotinylated-hGadd45β at which the half-maximal ELISA signal is detected corresponds to the dissociation constant (KD) (Friguet B, Chaffotte A F, Djavadi-Ohaniance L, Goldberg M E. J Immunol Methods. 1985 Mar. 18; 77 (2):305-19). Binding competition assays were performed by coating GST-MKK7 at 42 nM as described, a concentration of biotinylated-hGadd45β of 21 nM (pre-saturation conditions 1:0.5 mol/mol ratio) and, in a first test, using competitors at 21 nM. The binding of biotinylated hGadd45β to GST-MKK7 was analyzed in the presence of increasing amounts of competitor peptide (concentrations ranging from 0.01 nM to 100 nM), and the values obtained with the competitor were expressed as the percentage of the binding detected in the absence of competitor. […] According to the convention adopted in the table “L-Xaa” and “D-Xaa” refer to the L and D forms of amino acid Xaa.
A simplified combinatorial peptide library (Marasco et al. 2008, Curr. Protein Pept. Sci. 9:447-67) was screened for antagonists of the Gadd45β/MKK7 interaction. This library contained a total of 12^4=20,736 different tetrapeptides formed by combinations of the following amino acid residues Gln (Q), Ser (S), Arg (R), Ala (A), Tyr (Y), Pro (P), Met (M), Cys (C), Phe (F), Leu (L), His (H), Asp (D), and was iteratively deconvoluted in four steps by ELISA competition assays using at each step coated MKK7 (42 nM), soluble-biotin-hGadd45β (21 nM) and each of the 12 sub-libraries (42 nM).
A general note: An ELISA detects its analyte on a solid surface through an enzyme-linked reagent.

[4] abbreviates: Day 1, read-out: IC50 [H^3] thymidine incorporation assay in KMS11.
Where [5] appears, read: Day 3, read-out: IC50 [H^3] thymidine incorporation assay in KMS11.
The mark [6] stands for this setting: Day 6, read-out: IC50 [H^3] thymidine incorporation assay in KMS11.

pIC50: −log10 of the molar value. Read-outs that look alike come from different tables or passages of the source. Square brackets hold non-standard residues; d marks the D form. Peptide text beside a SMILES is read from it. * marks the point of attachment. NHPhenethyl = c1ccc(CCN*)cc1; Cbz = O=C(OCc1ccccc1)*; NHBn = c1ccc(CN*)cc1; Bz = O=C(c1ccccc1)*; NHPh = c1ccc(N*)cc1 Bounds are passed on as bounds.

With `O=C(O)C[C@@H](NC(=O)c1ccc(O)cc1)C(=O)N[C@H](Cc1c[nH]cn1)C(=O)Nc1ccccc1` [Compound 5, X2-Asp-His-Y1], the pIC50 in assay [1] and in assay [2] was less than 5.00 in each case.

As for `O=C(O)C[C@@H](NC(=O)c1ccccc1)C(=O)N[C@H](Cc1c[nH]cn1)C(=O)NCCc1ccccc1` [Compound 4, X1-Asp-His-Y3] (Bz-[dD]-[dH]-NHPhenethyl), the pIC50 in assay [1] was less than 5.00; in assay [2], less than 5.00; in assay [3] (peptides 0.01-10 nM), 9.30.

In the case of `N=C(N)NCCC[C@@H](NC(=O)[C@@H](CCC(N)=O)NC(=O)[C@@H](Cc1ccc(O)cc1)NC(=O)OCc1ccccc1)C(=O)N[C@H](Cc1ccccc1)C(N)=O` [Z-Tyr-Gln-Arg-Phe-NH2] (Cbz-[dY][dQ][dR][dF]-NH2), the pIC50 in assay [2] (setting [4]), in assay [2] (setting [5]) and in assay [2] (setting [6]) was less than 5.00 in each case.

In the case of `CC(C)C[C@@H](NC(=O)[C@@H](Cc1ccc(O)cc1)NC(=O)OCc1ccccc1)C(=O)N[C@H](Cc1ccccc1)C(N)=O` [Z-Tyr-Leu-Phe-NH2] (Cbz-[dY]-[dL]-[dF]-NH2), the pIC50 in assay [2] (setting [4]), in assay [2] (setting [5]) and in assay [2] (setting [6]) was less than 5.00 throughout.

Consider `O=C(O)C[C@@H](NC(=O)c1ccc(O)cc1)C(=O)N[C@H](Cc1c[nH]cn1)C(=O)NCc1ccccc1` [Compound 6, X2-Asp-His-Y2], for which the pIC50 in assay [1] and in assay [2] was less than 5.00 each time.

As for `O=C(O)C[C@@H](NC(=O)c1ccccc1)C(=O)N[C@H](Cc1c[nH]cn1)C(=O)Nc1ccccc1` [Compound 2, X1-Asp-His-Y1] (Bz-[dD]-[dH]-NHPh), the values for the pIC50 in assay [1], in assay [2] and in assay [3] (FIG. 3C) were less than 5.00, less than 5.00 and less than 9.00, respectively.

For the compound `O=C(O)C[C@@H](NC(=O)c1ccccc1)C(=O)N[C@H](Cc1c[nH]cn1)C(=O)NCc1ccccc1` [Compound 3, X1-Asp-His-Y2] (Bz-[dD]-[dH]-NHBn), the pIC50 was less than 5.00 in assay [1], less than 5.00 in assay [2] and less than 9.00 in assay [3] (FIG. 3C).

`N=C(N)NCCC[C@@H](NC(=O)[C@@H](CCC(=O)O)NC(=O)c1ccc(O)cc1)C(=O)Nc1ccccc1` [Compound 13, X2-Glu-Arg-Y1] gave a pIC50 in assay [2] of less than 5.00.

Regarding `N=C(N)NCCC[C@@H](NC(=O)[C@@H](CCC(=O)O)NC(=O)c1ccccc1)C(=O)Nc1ccccc1` [Compound 10, X1-Glu-Arg-Y1] (Bz-[dE]-[dR]-NHPh), in assay [2], the pIC50 is less than 5.00.

As for `NC(=O)[C@@H](Cc1ccccc1)NC(=O)[C@@H](CC(=O)O)NC(=O)[C@@H](Cc1ccc(O)cc1)NC(=O)OCc1ccccc1` [Compound 8, Z-Tyr-Asp-Phe-NH2] (Cbz-[dY]-[dD]-[dF]-NH2), the results for the pIC50 in assay [2] (setting [5]), in assay [2] (setting [6]) and in assay [3] (peptides 0.01-10 nM) were less than 5.00, less than 5.00 and 9.79, respectively.

As to `CC(C)C[C@@H](NC(=O)[C@@H](Cc1ccc(O)cc1)NC(=O)OCc1ccccc1)C(=O)N[C@H](CCCNC(=N)N)C(=O)N[C@H](Cc1ccccc1)C(N)=O` [Z-Tyr-Leu-Arg-Phe-NH2] (Cbz-[dY][dL][dR][dF]-NH2), the pIC50 in assay [2] (setting [4]), in assay [2] (setting [5]) and in assay [2] (setting [6]) was less than 5.00 each time.

Compound `N=C(N)NCCC[C@@H](NC(=O)[C@@H](CCC(=O)O)NC(=O)c1ccccc1)C(=O)NCc1ccccc1` [Compound 11, X1-Glu-Arg-Y2] (Bz-[dE]-[dR]-NHBn) showed a pIC50 in assay [2] of less than 5.00.

Take `N=C(N)NCCC[C@@H](NC(=O)[C@@H](CC(N)=O)NC(=O)[C@@H](Cc1ccc(O)cc1)NC(=O)OCc1ccccc1)C(=O)N[C@H](Cc1ccccc1)C(N)=O` [Z-Tyr-Asn-Arg-Phe-NH2] (Cbz-[dY][dN][dR][dF]-NH2): the pIC50 in assay [2] (setting [4]), in assay [2] (setting [5]) and in assay [2] (setting [6]) was less than 5.00 throughout.

On to `NC(=O)CC[C@@H](NC(=O)[C@@H](Cc1ccc(O)cc1)NC(=O)OCc1ccccc1)C(=O)N[C@H](Cc1ccccc1)C(N)=O` [Z-Tyr-Gln-Phe-NH2] (Cbz-[dY]-[dQ]-[dF]-NH2), for which the pIC50 in assay [2] (setting [4]), in assay [2] (setting [5]) and in assay [2] (setting [6]) was less than 5.00 in each case.

On to `NC(=O)C[C@@H](NC(=O)[C@@H](Cc1ccc(O)cc1)NC(=O)OCc1ccccc1)C(=O)N[C@H](Cc1ccccc1)C(N)=O` [Z-Tyr-Asn-Phe-NH2] (Cbz-[dY]-[dN]-[dF]-NH2), for which the pIC50 in assay [2] (setting [4]), in assay [2] (setting [5]) and in assay [2] (setting [6]) was less than 5.00 in each case.

As to `CSCC[C@@H](NC(=O)[C@@H](Cc1ccc(O)cc1)NC(=O)OCc1ccccc1)C(=O)N[C@H](Cc1ccccc1)C(N)=O` [Z-Tyr-Met-Phe-NH2] (Cbz-[dY]-[dM]-[dF]-NH2), the pIC50 in assay [2] (setting [4]), in assay [2] (setting [5]) and in assay [2] (setting [6]) was less than 5.00 each time.

`N=C(N)NCCC[C@@H](NC(=O)[C@@H](CCC(=O)O)NC(=O)c1ccc(O)cc1)C(=O)NCc1ccccc1` [Compound 14, X2-Glu-Arg-Y2]: the pIC50 in assay [2] was less than 5.00.
